Consider 3 compounds from patent publication US20120115782A1, “COMPOSITIONS AND METHODS FOR TREATING OR INHIBITING LIVER INJURY” (Yale University, priority 2009, published 2012).

Assay [1] concerns APAP induced hepatotoxicity in wild-type mice. In words: Acetaminophen (APAP) induced hepatotoxicity in mice: survival, serum ALT, liver histology. Format: in vivo, mouse (C57BL/6). Here is the method:
Animals. C57BL/6 mice were purchased from commercial sources. NALP3 −/−, IL-18 −/− ASC −/−, IPAF −/− and TLR9 −/− mice were backcrossed nine generations onto the C57BL/6 background. Caspase 1 −/− mice were backcrossed 5-6 generations onto the C57BL/6 background. These mice have been described previously (39, 40). IL-1β was neutralized in by using the anti-IL-1β antibody from clone B122 (a gift of R. Schreiber, Washington University) at a dose of 0.2 mg/mouse iv twice a day for a total of 48 hours after giving APAP. Control mice received Armenian hamster isotype control antibody. For survival experiments animals were euthanized when they became moribund using criteria of lack of response to stimuli or lack of righting reflex. Animal protocols were approved by the Yale University animal care and use committee. [include references for IPAF−/− (M. Lara-Tejero et al. JEM 2006) and IL-18−/−. Need to add TLR9−/− and TLR3−/−] Acetaminophen induced hepatotoxicity. APAP (Sigma, Mo.) solution was made fresh for each experiment in PBS at 20 mg/ml and heated in a water bath to 55° C. to dissolve. APAP was dosed at 500 mg/kg and injected I.P after 15 hrs of starvation. Animals were euthanized by ketamine/xylazine injection at 12 hours for collection of serum, isolation of liver lymphocytes or collection of liver tissue for histology, or they were observed every four hours for 72 hours until they reached criteria for euthanasia (lack of response to stimuli or lack of righting reflex).
Aspirin/clopidogrel/SC-560. Aspirin (Sigma, Mo.) was made fresh for each experiment. For dosing prior to APAP it was dissolved in single deionized water at 60 mg/l and heated to 42° C. with rapid stirring to dissolve, then rapidly placed in an ice water bath to cool. Aspirin in water was given to the mice 60-72 hours prior to APAP injection. Assuming water consumption of 3-5 ml per day this dose would be equivalent to a 300-500 mg dose in an 80 kg adult human. For co-administration of APAP and aspirin, aspirin was gavaged at a dose of 6 mg/kg in a volume of 100 ul of water immediately after ip injection of APAP. Clopidogrel (Gilead Pharmaceuticals, CA.) was dissolved in PBS at 6 mg/ml and administered by gavage of 100 ul, 30 mg/kg, every 24 hours beginning 48 hours prior and ending 24 hours after APAP injection. Cox-1 inhibitor (SC-560). SC-560 (Cayman chemical, MI) was dissolved at 50 mg/ml in DMSO and further dissolved in PBS in order to gavage a dose of 5 mg/kg in 100 ul. It was administered twice per day beginning 60 hours prior to Tylenol and continued for 48 hours after APAP injection as previously established (41).
Uric Acid Peritonitis. Peritonitis was induced with uric acid crystals as previously described by injecting 3 mg of MSU intraperitoneally per mouse (27). Three hours after injection peritoneal lavage was performed on mice euthanized by isoflurane inhalation. Neutrophil infiltration was evaluated by flow cytometry. The percent of Gr-1 (BD Pharmingen, CA) positive cells was multiplied by the total cell counts. Liver sinusoidal endothelial cell (LSEC) isolation. After in-situ pronase digestion the non-parenchymal cell suspension is centrifuged for 5 min at 100 g to remove most of the parenchymal cells. This process is repeated until no pellet is observed. The supernatant enriched in LSEC is centrifuged for 10 min at 350 g. The pellet is resuspended in PBS and centrifuged for 10 min at 350 g. The cells are resuspended in. PBS and layered (3.3 ml) on the top of two-step percoll gradient (put the 5 ml of 50% percoll at the bottom and put the 6.6 ml of 25% percoll at the top). The gradients are centrifuged at 900 g for 20 min and the intermediate layer included LSEC is collected and cultured in the media (EGM™-2MV—Microvascular Endothelial Cell Medium-2, CAMBREX, Charles City, Iowa). ODN2088 and IRS 954 injection.

Assay [2] relates to pro-IL-1β transcript. Briefly: Q-PCR of whole liver 12 hours after APAP: pro-IL-1β. The assay is classed as in vivo, mouse. The conditions noted are these: aspirin pre-treatment in drinking water. Here is the method: (§1) Uric Acid Peritonitis. Peritonitis was induced with uric acid crystals as previously described by injecting 3 mg of MSU intraperitoneally per mouse (27). Three hours after injection peritoneal lavage was performed on mice euthanized by isoflurane inhalation. Neutrophil infiltration was evaluated by flow cytometry. The percent of Gr-1 (BD Pharmingen, CA) positive cells was multiplied by the total cell counts. Liver sinusoidal endothelial cell (LSEC) isolation. After in-situ pronase digestion the non-parenchymal cell suspension is centrifuged for 5 min at 100 g to remove most of the parenchymal cells. This process is repeated until no pellet is observed. […] TLR9 antagonist (ODN2088, 50 microg×2) or PBS, were injected ip into wild-type mice immediately after and at 6 hours after APAP injection and total mouse liver was obtained 12 hours after APAP injection for quantitative Q-PCR for IL-1β. […] Quantitative Real-time PCR. […] Expression of glyceraldehyde 3-phosphate dehydrogenase was used to standardize the samples, and the results were expressed as a ratio compared with untreated HSCs. Quantitative Real-time PCR for mRNA expression of IL-18, IL-1β, TNF-α and IFN-γ. […] Quantitative real-time PCR (Q-PCR) was performed for IL-18 and IL-1β using commercial primer-probe sets (Applied Biosystems, CA) and the Applied Biosystem 7500 real time PCR system. […]

Assay [3] has as its system NALP3 inflammasome. In words: Uric acid (MSU crystal) peritonitis, model of NALP3 inflammasome activation. The assay is classed as in vivo. The conditions noted are these: low dose aspirin (60 mg/l) in drinking water three days prior; lavage 3 hours after MSU 3 mg/mouse ip. Here is the method: as §1
Assay [4] relates to THP1 cells (pro-IL-1β transcript). Briefly: THP1 cells stimulated with LPS, real-time PCR for pro-IL-1β. The assay is classed as cell-based, human. As to conditions: overnight with aspirin (1.5 mM, 0.15 mM), then LPS 10 μg/ml for 8 hours. On the procedure:
as §1
In general terms: Real-time PCR tracks product formation cycle by cycle.

Assay [5] has as its system IL-1β. Briefly: ELISA for serum IL-1β after APAP. As to conditions: ASA in drinking water. Format: in vivo, mouse. Background: An ELISA detects its analyte on a solid surface through an enzyme-linked reagent.
Assay [6] has as its system APAP toxicity in mice and rats. As to conditions: aspirin 200-600 mg/kg; cited from earlier work.
Assay [7] deals with TNF-α. In words: Q-PCR of whole liver after APAP: TNF-α. The conditions noted are these: aspirin treatment. The assay is classed as in vivo, mouse. On the procedure:
as §1

In assay [8] the test system is IFN-γ. In words: Q-PCR of whole liver after APAP: IFN-γ. The assay is classed as in vivo, mouse. The conditions noted are these: aspirin treatment. Here is the method: as §1
Assay [9] concerns pro-IL-18 transcript. Briefly: Q-PCR of whole liver 12 hours after APAP: pro-IL-18. The assay is classed as in vivo, mouse. The conditions noted are these: aspirin pre-treatment in drinking water. Here is the method:
as §1

Structures are written as SMILES.

For `COc1ccc(-n2nc(C(F)(F)F)cc2-c2ccc(Cl)cc2)cc1` [SC-560], the “protection against APAP toxicity (survival)” value in assay [1] (SC-560 gavage 5 mg/kg twice daily, from 60 hours prior to 48 hours after APAP) was “did not protect”.

As for `CC(=O)Oc1ccccc1C(=O)O` [aspirin, acetylsalicylic acid], the “increase in pro-IL-1β message by APAP, whole liver” value in assay [2] is given as “reduced to normal levels”. In assay [1] (aspirin 60 mg/l in drinking water for 3 days before APAP 500 mg/kg ip, 72 hours), the “survival after APAP” value is “markedly improved survival”. Also, the “survival, aspirin given concordantly with APAP” value in [1] (aspirin gavaged 6 mg/kg immediately after ip APAP) was determined as 43%+/−11%. Besides, the “liver histology (H&E) 12 hours after APAP” value in assay [1] (aspirin in drinking water three days prior to APAP) was “significant reduction in APAP induced liver injury and hemorrhage”. Besides, the “serum ALT 12 hrs after APAP” value in assay [1] (pre-treatment with aspirin in drinking water) was “significantly lower serum ALT”. Moreover, the “neutrophil exudates (Gr-1 positive) in MSU peritonitis” value in assay [3] is “eightfold reduction”. Further, in assay [4], the “up-regulation of pro-IL-1β transcript by LPS in THP1 cells” value is “reduced”. Moreover, the “serum IL-1β levels induced by APAP” value in assay [5] was “significant reduction”. In assay [6], the “liver injury from APAP” value is given as “reduce liver injury” and the “survival from APAP” value was “not improve survival”. Besides, the “expression of TNF-α, whole liver after APAP” value in assay [7] was “reduced”. In addition, the “expression of IFN-γ, whole liver after APAP” value in assay [8] is “reduced”. For the same compound, the “increase in pro-IL-18 message by APAP, whole liver” value in [9] is “reduced to normal levels”.

With `COC(=O)[C@H](c1ccccc1Cl)N1CCc2sccc2C1` [clopidogrel], the “protection against APAP toxicity (survival)” value in [1] (clopidogrel gavage 30 mg/kg every 24 hrs, from 48 hours prior to 24 hours after APAP) was “did not protect”.
